According to publication PMC4393181, “The Chemopotential Effect of Annona muricata Leaves against Azoxymethane-Induced Colonic Aberrant Crypt Foci in Rats and the Apoptotic Effect of Acetogenin Annomuricin E in HT-29 Cells: A Bioassay-Guided Approach” (PLoS ONE, 2015):
Converted amounts (≈) assume the structure as drawn. Like-named read-outs stand apart in the source and are kept apart here.

Key:
Bcl-2 [1] = test: Immunohistochemistry of colon tissue sections for Bcl-2; assay type: in vivo, Sprague Dawley rats; conditions: AOM-induced rats; EEAML both doses (250 and 500 mg/kg), 5-FU 35 mg/kg
Description: (§1) Immunohistochemical evaluation of proliferating cell nuclear antigen (PCNA), Bax and Bcl-2 proteins was performed on deparaffinized tissue sections using the commercial Dako ARK Peroxidase kit (DAKO, Carpinteria, CA, USA) according to the vendor’s instructions. In brief, the antigen retrieval process of tissue sections was performed using 10 mM citrate buffer (pH 6.0); the tissue sections were then washed with PBS and blocked with peroxidase blocking buffer. Next, the tissue sections were incubated with diluted mouse PCNA (1:100, Cat: ab2426), Bax (1:100, Cat: ab7977) and Bcl-2 (1:100, Cat: ab7973) antibodies (Abcam, Cambridge, MA, USA) for 15 min. All of the slides were then incubated with the appropriate amount of streptavidin-HRP for 30 min at room temperature. The slides were developed with a diaminobenzidine (DAB) substrate-chromogen system and were counterstained in hematoxylin. The measurement of the PCNA labeling index (PI) was calculated using the formula below.

Bax [2] = test: Immunohistochemistry of colon tissue sections for Bax; assay type: in vivo, Sprague Dawley rats; conditions: AOM-induced rats; EEAML both doses (250 and 500 mg/kg), 5-FU 35 mg/kg
Description: as §1

AOM-induced colonic ACF = test: Counting of AOM-induced colonic aberrant crypt foci (methylene blue staining); assay type: in vivo, Sprague Dawley rats; conditions: group E
Description: The experiment was performed as previously described in detail. Thirty male rats (n = 6 per group) in five groups (negative control, cancer control, low dose of EEAML, high dose of EEAML and treatment control) were subcutaneously injected once a week for two consecutive weeks according to the “Induction” column in Table 1. Then, all of the rodents were orally fed once a day for two months based on the experimental design (Table 1), except for the treatment control group, which was intra-peritoneally injected with 35 mg/kg of 5-FU (Sigma, St. Louis, MO, USA) for five consecutive days. The condition of the animals was observed every morning throughout the experimental period.
To determine the intensity of colonic ACF formation after 10 weeks of injection with AOM, ACF counting was performed as previously described in detail. In brief, rats were anesthetized with a high dose of ketamine (30 mg/kg, 100 mg/mL) and xylazine (3 mg/kg, 100 mg/mL) under aseptic conditions. The excised colon was flushed with phosphate buffered saline (PBS, Sigma), opened longitudinally and fixed flat between filter papers overnight at 4°C using 10% buffered formalin. Equal lengths of the proximal and distal portions of the fixed colons were stained with 0.5% methylene blue solution. After washing away the excess stain, topographic analysis was performed under a light microscope (Nikon, Tokyo, Japan) to score the total number of ACF, as well as the number of crypts per focus.

[3] = test system: HT-29 (human colon cancer cells); test: MTT assay on HT-29 cells; assay type: cell-based; conditions: mean ± SEM of three experiments
Description: (§2) CCD841 (normal human colon epithelial cells) and HT-29 (human colon cancer cells) were purchased from the American Type Cell Collection (ATCC, Manassas, VA, USA). The cells were maintained at 37°C in a humidified atmosphere of 5% CO2. The culture medium consisted of Dulbecco’s Modified Eagles medium (Sigma) that was supplemented with 10% Fetal Bovine Serum (PAA Laboratories, Pasching, […]), 100 μg/ml streptomycin (Sigma) and 100 U/ml penicillin (Sigma). The untreated medium containing 0.1% vehicle DMSO was applied as the negative control for all of the assays in the in vitro study.
(§3) Cell viability analysis was performed using the MTT assay as described previously. In brief, cells (5 × 10^4 cells/ml) at the exponential phase of growth were seeded in a 96-well plate and treated with serial concentrations of the tested agent (0.62, 1.25, 2.5, 5, 10, 20, 40 and 80 μg/ml) for 12, 24 and 48 h. 5-FU, a standard anticancer drug, was used as a positive control in this assay. After incubation, 20 μl of the MTT solution (5.0 mg/ml, Sigma) was loaded into each well, and the cells were further incubated at 37°C for 4 h. DMSO (150 μl) was then used to dissolve the formazan crystals. The cytotoxicity against cancer and normal cells was measured at the absorbance of 570 nm using an ELISA reader (Asys UVM340, Eugendorf, Austria). The data were then processed, and the antiproliferative potential of the tested agents was expressed as IC50 values, the concentration that causes a 50% inhibition of cell growth.

[4] = test system: CCD841 (normal human colon epithelial cells); test: MTT assay on CCD841 cells; assay type: cell-based; conditions: mean ± SEM of three experiments
Description: as §2, §3

PCNA = test: Immunohistochemistry of colon tissue sections, PCNA labeling index; assay type: in vivo, Sprague Dawley rats; conditions: 5-FU 35 mg/kg, colon tissue of AOM-induced rats (cancer control PI 81%, negative control 4%)
Description: as §1
PI = number of positive cells/total number of epithelial cells ×100

HT-29 cells [5] = test: LDH release assay; assay type: cell-based, human; conditions: HT-29, 24 h, compared with 0.1% DMSO control
Description: To further confirm the cytotoxic effects of annomuricin E on HT-29 cells, the LDH release assay was performed using the Pierce LDH Cytotoxicity Assay Kit (Thermo Scientific, Pittsburgh, PA, USA) as previously described. Briefly, HT-29 cells at the exponential phase of growth were treated with different concentrations of annomuricin E and Triton X-100 (positive control) for 24 h. After the incubation, the treated HT-29 cells were exposed to the LDH reaction solution (100 μl) for 30 min. The red color intensity, representing the level of released LDH, was then measured at 490 nm using the Tecan Infinite 200 Pro (Tecan, Männedorf, Switzerland) microplate reader. The result of LDH release was calculated as a percentage of the positive control.

Bax [6] = test: Q-PCR gene expression analysis of Bax; assay type: cell-based, human; conditions: HT-29, IC50 concentration, 48 h, normalized to β-actin
Description: (§4) The mRNA expression of two proteins, Bcl-2 and Bax, was quantified using real-time Q-PCR analysis as described previously with some modifications. […] The total RNA of treated cells was isolated using the RNeasy Plus Mini kit (Qiagen, Hilden, Germany) followed by the synthesis of the complementary DNA using the iScript cDNA synthesis kit (Biorad, Hercules, CA, USA). Q-PCR was performed on the StepOne PLUS real-time PCR machine (Applied Biosystems, Carlsbad, CA, USA). The β-actin housekeeping gene was used as a positive reference and was applied to normalize the target mRNA. The Q-PCR master mix was provided by Solaris Q-PCR Expression Assays (Thermo Fisher Scientific, Waltham, MA, USA) for the gene expression analysis of Bcl-2, AX-003307-00-0100; Bax, AX-003308-00-0100; and β-actin, AX-003451-00-0100.

caspase 3/7 = test: Caspase-Glo 3/7 luminescence assay; assay type: cell-based, human; conditions: HT-29, IC50 concentration, 12 to 48 h, vs control
Description: (§5) A luminescence-based analysis was performed to investigate the activity of caspase 3/7 and caspase 9 using the Caspase-Glo 9 Assay and Caspase-Glo 3/7 Assay commercial kits (Promega Corporation, Fitchburg, WI, USA) as described previously. […] After incubation, 100 μl of the caspase-Glo reagent was added to each well according to the manufacturer’s protocol. Luminescence, which represents the caspase activities, was measured using a luminescence microplate reader (Tecan Infinite 200 Pro).

Bcl-2 [7] = test: Immunofluorescence analysis of Bcl-2; assay type: cell-based, human; conditions: HT-29, IC50 concentration, 12, 24 and 48 h, compared with control
Description: (§6) The perturbation in the protein expressions of Bcl-2 and Bax was investigated using immunofluorescence analysis as previously described in detail. […] After washing the cells twice with PBS, they were fixed in 4% paraformaldehyde at 25°C for 20 min prior to blocking with blocking buffer (0.03% Triton X-100/PBS and normal serum) for 1 h. The cells were then supplemented with a primary antibody solution and incubated overnight at 4°C. After incubation, the cells were treated with Bcl-2 and Bax flurochrome-conjugated secondary antibody (Santa Cruz Biotechnology, Santa Cruz, CA, USA) for 1 h. The cells were then washed twice with PBS prior to staining with DAPI. The stained cells were examined using the Cell Reporter cytofluorimeter system.

Bax [8] = test: Immunofluorescence analysis of Bax; assay type: cell-based, human; conditions: HT-29, IC50 concentration, 48 h
Description: as §6

HT-29 cells [9] = test: Multiple cytotoxicity assay (Cellomics Multiparameter Cytotoxicity 3 Kit); assay type: cell-based, human
Description: The simultaneous analysis of critical apoptosis markers, namely cell membrane permeability, cytochrome c leakage from the mitochondria, mitochondrial membrane potential (MMP) and total nuclear intensity, in HT-29 cells was performed using the Cellomics Multiparameter Cytotoxicity 3 Kit (Cellomics, Pittsburgh, PA, USA) as previously described in detail. […] After incubation, the treated cells were stained with a cell permeability dye (FITC), a cytochrome c dye (Cy3), a mitochondrial membrane potential dye (Cy5) and a nuclear dye (Hoechst 33342), according to the vendor’s protocol. The plates were analyzed using a Cell Reporter cytofluorimeter system (Gentix/Molecular Devices, United Kingdom).

caspase 9 = test: Caspase-Glo 9 luminescence assay; assay type: cell-based, human; conditions: HT-29, IC50 concentration, 12 to 48 h, vs control
Description: as §5

Bcl-2 [10] = test: Q-PCR gene expression analysis of Bcl-2; assay type: cell-based, human; conditions: HT-29, IC50 concentration, 12 to 48 h
Description: as §4

HT-29 cells [11] = test: Cell cycle assay (PI staining, flow cytometry); assay type: cell-based, human; conditions: HT-29, IC50 concentration
Description: To determine the effect of annomuricin E on the cell cycle distribution, flow cytometric analysis was performed as described previously. […] After incubation, the treated HT-29 cells were harvested, washed twice with ice-cold PBS and fixed overnight at 4°C with 90% ethanol. The following day, the cells were washed and stained with propidium iodide (PI, 100 μl, 1 mg/ml). The cellular RNA was degraded using the enzyme RNAse A (200 μg/ml, Sigma). The stained cells were instantly examined using a BD FACSCanto II flow cytometer (BD Biosciences, San Jose, CA, USA) by analyzing 10,000 cells per sample. The data were processed using ModFit LT software (Verity Software House, Inc., Topsham, ME, USA).

HT-29 cells [12] = test: Annexin V-FITC/PI detection of early and late apoptosis; assay type: cell-based, human; conditions: HT-29, IC50 concentration
Description: Flow cytometric analysis was performed to quantify early and late apoptosis in treated HT-29 cells using the commercial BD Pharmingen Annexin V-FITC Apoptosis Detection kit (APOAlert Annexin V; Clontech, Mountain View, CA, USA). […] After incubation, the treated cells were harvested, washed twice with PBS and suspended in the Annexin-V binding buffer. The cells were then supplemented with Annexin-V-FITC and PI, according to the vendor’s instructions. The stained cells were examined using a BD FACSCanto II flow cytometer. Early and late apoptotic cells and necrotic cells were quantitatively detected using a quadrant statistics analysis.

[13] = 5-FU 35 mg/kg intra-peritoneally for five consecutive days, AOM-induced rats

## O=c1[nH]cc(F)c(=O)[nH]1 [5-FU, 5-fluorouracil]
Bcl-2 [1]
  Bcl-2 expression in colon tissues: down-regulation
Bax [2]
  Bax expression in colon tissues: up-regulation
AOM-induced colonic ACF; [13]
  No. of crypts per ACF: 1 crypt: 12 ± 0.26
  No. of crypts per ACF: 2 crypt: 6 ± 0.45
  No. of crypts per ACF: 3 crypt: 7 ± 0.78
  No. of crypts per ACF: 4 crypt and more: 4 ± 0.18
  Total ACF: 29 ± 1.40
AOM-induced colonic ACF; 5-FU 35 mg/kg intra-peritoneally, compared with cancer control
  Inhibition of ACF formation: 79.5%
[3]; Homo sapiens, HT-29, 12 h, read-out: IC50
  IC50: 4.85 ± 0.38 µg/mL (≈ 37.3 µM)
[3]; Homo sapiens, HT-29, 24 h, read-out: IC50
  IC50: 2.96 ± 0.43 µg/mL (≈ 22.8 µM)
[3]; Homo sapiens, HT-29, 48 h, read-out: IC50
  IC50: 1.5 ± 0.17 µg/mL (≈ 11.5 µM)
[4]; Homo sapiens, CCD-841, CCD841, 12 h, read-out: IC50
  IC50: 58.5 ± 2.09 µg/mL (≈ 450 µM)
[4]; Homo sapiens, CCD-841, CCD841, 24 h, read-out: IC50
  IC50: 44.4 ± 2.25 µg/mL (≈ 341 µM)
[4]; Homo sapiens, CCD-841, CCD841, 48 h, read-out: IC50
  IC50: 36.3 ± 0.43 µg/mL (≈ 279 µM)
PCNA
  PCNA labeling index (PI): 24%

## annomuricin E
HT-29 cells [5]
  Lowest concentration with significant LDH leakage: 4 µg/mL
Bax [6]
  Bax mRNA expression, increase relative to control: approximately 5 fold
[3]; HT-29, 12 h
  IC50: 5.72 ± 0.41 µg/mL
[3]; HT-29, 24 h
  IC50: 3.49 ± 0.22 µg/mL
[3]; HT-29, 48 h
  IC50: 1.62 ± 0.24 µg/mL
Caspase 3/7
  Caspase 3/7 activity: significantly elevated
Bcl-2 [7]
  Bcl-2 protein expression: significantly and dose-dependently reduced
Bax [8]
  Bax protein expression (FITC fluorescent intensity), increase relative to control: approximately 10 fold
HT-29 cells [9]; HT-29, IC50 concentration, 12, 24 and 48 h
  Total nuclear intensity: significantly elevated
HT-29 cells [9]; HT-29, IC50 concentration, 12 h
  Mitochondrial membrane potential (MMP): significant collapse
HT-29 cells [9]; HT-29, IC50 concentration, from 12 h, time-dependent
  Cytochrome c leakage from the mitochondria: increase in cytochrome c leakage
HT-29 cells [9]; HT-29, IC50 concentration, only 24 and 48 h
  Cell membrane permeability: significantly increased
[4]; CCD841, 12 h
  IC50: 64.32 ± 3.76 µg/mL
[4]; CCD841, 24 h
  IC50: 47.10 ± 0.47 µg/mL
[4]; CCD841, 48 h
  IC50: 32.51 ± 1.18 µg/mL
Caspase 9
  Caspase 9 activity: significantly elevated
Bcl-2 [10]
  Bcl-2 mRNA expression: time-dependently reduced
HT-29 cells [11]; 24 h
  Percentage of cells arrested at the G1 phase: 89.65%
HT-29 cells [11]; 48 h
  Percentage of cells arrested at the G1 phase: 94.60%
HT-29 cells [12]; 12 h (control 0.5%)
  Percentage of late apoptotic cells (Annexin V+/PI+): 6.9%
HT-29 cells [12]; 12 h (control 3.6%)
  Percentage of early apoptotic cells (Annexin V+/PI-): 13.9%
HT-29 cells [12]; 24 h (peak)
  Percentage of early apoptotic cells (Annexin V+/PI-): 27.3%
  Percentage of late apoptotic cells (Annexin V+/PI+): 13.6%
